# Key:
# [1] = molecular target: PAF specific receptor binding site on rabbit platelet plasma membranes (Oryctolagus cuniculus, UniProt G1TEI7); experiment: Inhibition of 3H-PAF binding to rabbit platelet plasma membrane; details: for inhibition at 0.03 µM: .03 μM; for inhibition at 0.1 µM: .1 μM; for inhibition at 0.3 µM: .3 μM
# Protocol: A. In Vitro Assay: In vitro, they inhibit PAF-induced functions in both the cellular and tissue levels by disturbing the PAF binding to its specific receptor site. The ability of a compound of formula (I) to inhibit the PAF binding to its specific receptor binding site on rabbit platelet plasma membranes was measured by an assay recently developed by us.
# The inhibition of H^3 -PAF binding to the rabbit platelet plasma membrane by a PAF-antagonist of Formula (I) was determined by a method employing isotopic labeling and filtration techniques. Generally, a series of Tris-buffered solutions of the selected antagonist at predetermined concentrations were prepared. Each of these solutions contains 1 pmole of ^3 H-PAF, a known amount of the test antagonist, and a sufficient amount of the pH 7.5 Tris-buffer solution (10 mM Tris, 0.25% bovine serum albumin, and 150 mM NaCl per ml water) to make the final volume of 1 ml. After adding into a set of test tubes each with 100 μg of the platelet plasma membrane suspension (S. B. Hwang, et al., Biochemistry, 1983) and one of the Tris-buffer solutions described above, the resulting mixture in each test tube was incubated at 0° C. for about one hour or until the reaction was complete. Two control samples, one of which (C1)contains all the ingredients described above except the antagonist and the other (C2) contains C1 plus a 1000-fold excess of unlabeled PAF, were also prepared and incubated simultaneously with the test samples. After the incubation was completed, the contents of each test tube were filtered under vacuo through a Whatman GF/C fiberglass filter and the residue washed rapidly several times with a total of 20 ml cold (0°-5° C.) Tris-buffer solution. Each washed residue was then suspended in 10 ml scintillation solution (Aquasol 2, New England Nuclear, Connecticut) and the radioactivity was counted in a Packard Tri-Carb 460CD Liguid Scintillation System. Defining the counts from a test sample as "Total binding with antagonist"; the counts from the control sample C1, as "Total binding C1 "; and the counts from the control sample C2 as "nonspecific binding C2 ", the percent inhibition of each test antagonist can be determined by the following equation: [formula]
# [2] = tested on: PAF-induced symptoms (increased vascular permeability, increased degranulation); experiment: Oral activity in inhibiting PAF-induced symptoms in rats; assay type: in vivo; details: rat
# Source text: B. In vivo Assay: Protocol for Assay of Oral Activity of PAF-antagonists in inhibiting PAF-induced symptoms including decreased arterial blood flow, increased vascular permeability and increased degranulation in rats
# Animals: Female, Wiston rats, 190-220 g
# 2. Weigh the rats the morning after fasting.
# 3. Suspend a test compound in 0.5% methylcellulose with 12 ounce hand homogenizer or a sonicator if necessary to yield a fine suspension. […]
# 4. One hour after dosing, anesthetize the rat with sodium Nembutal (i.p.).
# 5. One and a quarter hours after dosing, cannulate surgically the left femoral vein and artery of the rat.
# 6. One and a half hours after dosing, infuse through cannulated vein 0.5 nannomoles (n moles) per 200 g body weight of the rat. Take blood samples from the cannulated femoral artery at 1.5, 3, 5, 8, 11, 15, 20 25 and 30 minute intervals. After the beginning of the PAF infusion as well as just before the PAF infusion, measure the following three parameters for each blood sample:
# (§1) (a) the arterial blood flow rate: determined by measuring the time to fill a pre-calibrated 14 μl capillary tube;
# (b) the vascular permeability: measured by calculating the increased hematocrit which results from loss of plasma from the circulation to extra-vascular spaces.
# (c) the circulatory degranulation: determined by assaying the increased plasma level of N-acetylglucosaminidase, a marker lysosomal enzyme.
# 7. Determine the percent change in each parameter of a blood sample at each post-PAF interval including the 30 minute interval, relative to the pre-PAF blood values.
# (§2) 8. Calculate the percent inhibition by the formula: [formula]
# [3] = tested on: soluble immune complex induced effects; experiment: Method B: oral activity in inhibiting soluble immune complex induced effects in rats; assay type: in vivo; details: rat, 50 mg/kg
# Protocol: Method B: Protocol for Assay of Oral Activity of PAF antagonists in inhibiting soluble immune complex induced effects including decreased arterial blood flow, increased vascular permeability and increased degranulation in rats.
# Animals: Female, wistar rats, 190-22-g
# 2. Weigh the rats the morning after fasting
# 3. Suspend a test compound in 0.5% methylcellulose with 12 ounce hand homogenizer to yield fine suspension. Administer orally each of the rats with 2 ml of suspension such that the rat received a predetermined amount of the compound varying between 2 and 50 mg compound per kg bodyweight of the rat.
# 4. Soluble immune complexes (I.C.) were prepared by mixing 2.4 mg human serum albumin (HSA) with 51 mg of the Igby fraction from rabbit anti-HSA antiserum in a final volume of 3.4 ml and incubating at 37° C. for 1 hour. This ratio of HSA to antibody was previously determined to be in slight antigen excess of equivalence and to result in soluble I.C. Following 37° C. incubation, the I.C. was centrifuged at 10,000 xg, 5 minute and the resulting superinstant containing the soluble I.C. stored on ice.
# 5. Two and one-half hours after dosing, anesthetize the rat with sodium Nembutal (i.P.)
# 6. Two and three-quarters hours after dosing, cannulate surgically the left femoral vein and artery of the rat. Take a blood sample from the cannulated femoral artery before the I.C. infusion and 1.5, 3, 5, 8, 11, 15, 20, 25 and 30 minutes after the I.C. infusion. Measure the following three parameter for each blood sample:
# as §1
# (b) the vascular permeability: measured by calculating the increased hematocit which results from loss of plasma from the circulation to extra-vascular spaces.
# (c) the circulatory degranulation: determined by assaying the increased plasma level of N-acetylglucosaminidase, a marker lysopomal enzyme.
# as §2
# PAF specific receptor binding site on rabbit platelet plasma membranes, sequence (G1TEI7 1-342): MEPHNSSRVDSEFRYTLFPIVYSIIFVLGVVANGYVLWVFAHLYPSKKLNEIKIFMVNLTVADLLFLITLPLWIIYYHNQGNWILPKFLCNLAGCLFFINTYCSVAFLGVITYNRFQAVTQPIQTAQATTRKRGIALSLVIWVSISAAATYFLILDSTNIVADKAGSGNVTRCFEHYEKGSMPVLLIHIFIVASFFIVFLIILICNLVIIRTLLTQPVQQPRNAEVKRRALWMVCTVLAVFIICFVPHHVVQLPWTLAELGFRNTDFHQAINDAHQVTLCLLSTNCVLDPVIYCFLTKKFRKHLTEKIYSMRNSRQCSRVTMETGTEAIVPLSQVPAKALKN
SMILES,inhibition at 1 µM [1] [%],inhibition at 5 µM [1] [%],inhibition at 0.03 µM [1] [%],inhibition at 0.1 µM [1] [%],inhibition at 0.3 µM [1] [%],PAF-antagonist activity (in words) [1],% inhibition A (increased vascular permeability) ([2]; 20 mg/kg) [%],% inhibition B (increased degranulation) ([2]; 20 mg/kg) [%],also measured
"COc1ccc([C@H]2CC[C@H](c3ccc(OC)c(OC)c3)S2)cc1OC (relative stereo) [H H 3,4-dimethoxyphenyl same as Ar trans, trans-2,5-bis-(3,4-dimethoxyphenyl)tetrahydrothiophene]",100,,31,43,83,,,,
"COc1cc([C@H]2CC[C@H](c3cc(OC)c(OC)c(OC)c3)S2)cc(OC)c1OC (relative stereo) [trans-2,5-bis (3,4,5-trimethoxyphenyl) tetrahydrothiophene]",100,,69,95,100,most active PAF-antagonists,85,83,% inhibition A (increased vascular permeability) ([2]; 1 mg/kg): 20%; % inhibition B (increased degranulation) ([2]; 1 mg/kg): 49%; % inhibition A (increased vascular permeability) ([2]; 5 mg/kg): 58%; % inhibition B (increased degranulation) ([2]; 5 mg/kg): 60%; % inhibition A (increased vascular permeability) ([2]; 40 mg/kg): 81%; % inhibition B (increased degranulation) ([2]; 40 mg/kg): 81%; % inhibition of decreased arterial blood flow [3]: 40%; % inhibition of increased degranulation [3]: 40%; % inhibition of increased vascular permeability [3]: 73%
"COc1cc([C@H]2CC[C@H](c3cc(OC)c(OC)c(OC)c3)S2)cnc1OC (relative stereo) [trans-2-(3,4,5-trimethoxyphenyl)-5-(5,6-dimethoxy-3-pyridyl)tetrahydrothiophene]",80,96,,,,most active PAF-antagonists,,,

# More lines, main results first:
inhibition at 1 µM [1] [%],inhibition at 5 µM [1] [%],inhibition at 0.03 µM [1] [%],inhibition at 0.1 µM [1] [%],inhibition at 0.3 µM [1] [%],PAF-antagonist activity (in words) [1],SMILES,% inhibition A (increased vascular permeability) ([2]; 20 mg/kg) [%],% inhibition B (increased degranulation) ([2]; 20 mg/kg) [%],also measured
53,82,,,,,COc1ccc([C@H]2S[C@@H](c3ccc(OC)c(OC)c3)[C@H](C)[C@H]2C)cc1OC (relative stereo),,,
82,,30,68,43,,COc1ccc([C@H]2S[C@H](c3ccc(OC)c(OC)c3)[C@H](C)[C@H]2C)cc1OC (relative stereo),,,
62,,,25,41,,"COc1ccc([C@@H]2CC[C@H](c3ccc(OC)c(OC)c3)S2)cc1OC [H H 3,4-dimethoxyphenyl same as Ar cis, cis-2,5-bis-(3,4-dimethoxyphenyl)tetrahydrothiophene]",41,35,

# Reference: patent US4757084A, “2,5-diaryl tetrahydrothiophenes and analogs thereof as PAF-antagonists” (Merck & Co., Inc., priority 1985, dated 1988)
